From ChEMBL document CHEMBL4354793, “Current and emerging therapeutic targets of alzheimer's disease for the design of multi-target directed ligands” (Medchemcomm, 2019) come the findings set out here.

Structures are written as SMILES.

Type in all cases: functional
In test [1] the test system is Oryctolagus cuniculus. In words: In vivo inhibition of AChE in po dosed rabbit brain relative to control.
The test system of test [2] is Mus musculus. Kind of test: In vivo inhibition of AChE in po dosed mouse brain relative to control.
Test [3] concerns Oryctolagus cuniculus. In words: In vivo inhibition of MAO-B in po dosed rabbit brain relative to control.
The test system of test [4] is Mus musculus. In words: In vivo inhibition of MAO-B in po dosed mouse brain relative to control.
Test [5] deals with Rattus norvegicus. Kind of test: In vivo inhibition of AChE in po dosed rat brain relative to control.
Test [6] has as its system Rattus norvegicus. In words: In vivo inhibition of MAO-B in po dosed rat brain relative to control.

As to `C#CCN[C@@H]1CCc2ccc(OC(=O)N(C)CC)cc21` [LADOSTIGIL], the “inhibition (INH)” value is given as 25 - 40% in the test with Oryctolagus cuniculus [1]; 25 - 40% in the test with Mus musculus [2]; 70 - 90% in the test on Oryctolagus cuniculus [3]; 70 - 90% with Mus musculus [4]; 25 - 40% with Rattus norvegicus [5]; 70 - 90% in the test with Rattus norvegicus [6].
